Results taken from US8168651B2, “Protein kinase modulators” (Cylene Pharmaceuticals, Inc., priority 2008, dated 2012).

What was measured:
Jurkat = assay: Cell proliferation modulatory activity, Jurkat; type: cell-based; conditions: Homo sapiens
recombinant human PIM1 = recombinant human PIM1 (Homo sapiens (Human), UniProt P11309); assay: PIM-1 kinase activity in cell-free in vitro assay; type: biochemical; conditions: cell-free assay; for inhibition at 0.5 µM: 500 nM compound, read-out: PIM-1: % inh 500 nM
recombinant human PIM1, sequence (P11309 whole entry): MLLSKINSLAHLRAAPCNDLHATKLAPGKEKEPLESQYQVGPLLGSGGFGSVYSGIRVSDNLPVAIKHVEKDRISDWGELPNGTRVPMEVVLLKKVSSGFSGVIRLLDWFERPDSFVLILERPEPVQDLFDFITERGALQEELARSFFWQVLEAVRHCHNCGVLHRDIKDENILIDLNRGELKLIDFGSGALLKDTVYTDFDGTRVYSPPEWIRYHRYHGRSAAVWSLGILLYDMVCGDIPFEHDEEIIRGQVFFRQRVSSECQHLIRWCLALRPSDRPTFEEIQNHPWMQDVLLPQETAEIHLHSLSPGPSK

recombinant human CK2 = recombinant human CK2 (Homo sapiens (Human), UniProt P68400); assay: CK2 assay (cell-free, 33P-ATP filter plate); type: biochemical; conditions: 500 nM compound, cell-free assay; read-out: CK2: % inh 500 nM
recombinant human CK2, sequence (P68400 whole entry): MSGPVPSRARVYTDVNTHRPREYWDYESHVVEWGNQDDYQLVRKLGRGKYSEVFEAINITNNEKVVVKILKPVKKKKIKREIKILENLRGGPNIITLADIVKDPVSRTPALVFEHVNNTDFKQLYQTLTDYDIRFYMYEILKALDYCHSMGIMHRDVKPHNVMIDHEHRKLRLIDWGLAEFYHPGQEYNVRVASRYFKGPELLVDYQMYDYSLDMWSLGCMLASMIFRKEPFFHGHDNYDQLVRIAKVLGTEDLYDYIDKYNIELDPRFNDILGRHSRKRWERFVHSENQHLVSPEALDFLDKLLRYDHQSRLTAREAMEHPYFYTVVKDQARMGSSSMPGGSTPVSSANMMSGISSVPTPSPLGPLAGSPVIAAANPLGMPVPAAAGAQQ
recombinant human CK2, sequence (P67870 whole entry partner): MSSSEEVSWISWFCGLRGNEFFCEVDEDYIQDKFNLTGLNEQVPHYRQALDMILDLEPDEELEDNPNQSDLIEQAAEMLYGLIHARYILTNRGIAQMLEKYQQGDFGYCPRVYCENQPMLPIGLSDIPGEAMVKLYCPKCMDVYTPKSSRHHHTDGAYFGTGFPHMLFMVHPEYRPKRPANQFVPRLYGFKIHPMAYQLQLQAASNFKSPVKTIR

[1] = test system: HCT-116 human colorectal carcinoma cells; assay: Cell-proliferation assay using Alamar Blue dye; type: cell-based; conditions: Homo sapiens, HCT-116, second HCT-116 column (c8); read-out: HCT-116 (uM) cell proliferation modulatory activity;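 note: cells exposed to compound for about 4 days, then Alamar Blue added and dye fluorescence read after about 4 h, compared with medium-only control wells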
MV-4-11 = assay: Cell proliferation modulatory activity, MV-4-11; type: cell-based; conditions: Homo sapiens, MV4-11; MV-4-11 cells
K-562 = assay: Cell proliferation modulatory activity, K-562; type: cell-based; conditions: Homo sapiens, K562; K-562 cells

Structure (SMILES)	IC50 (Jurkat)	inhibition at 0.5 µM (recombinant human PIM1)	inhibition at 0.5 µM (recombinant human CK2)	IC50 [1]	IC50 (MV-4-11)	IC50 (K-562)	IC50 (recombinant human PIM1)
O=C(O)c1ccc2c(c1)nc(Nc1cccc(C(F)(F)F)c1)c1ncncc12	2.53 µM						
CCNc1ncc2c(n1)c(Nc1cccc(Cl)c1)nc1cc(C(=O)O)ccc12	3.06 µM						
NC(=O)CCNc1ncc2c(n1)c(Nc1cccc(Cl)c1)nc1cc(C(=O)O)ccc12	37.7 µM						
CN(CCc1ccccn1)c1nc2cc(C(=O)O)ccc2c2cnccc12		3.73%	90.8%	0.902 µM	1.54 µM	7.2 µM	
COC(=O)c1ccc2c(c1)nc(NCCCOC(C)C)c1ccncc12		24.2%	90.9%	> 10 µM	6.42 µM	> 10 µM	
CC(C)OCCCNc1nc2cc(C(=O)O)ccc2c2cnccc12		60.8%	98.5%	> 10 µM	7.01 µM	> 10 µM	0.402 µM
COC(=O)c1ccc2c(c1)nc(NCCOC(C)C)c1ccncc12		39.1%	15.6%	> 10 µM	2.94 µM	> 10 µM	
CC(C)OCCNc1nc2cc(C(=O)O)ccc2c2cnccc12		48.2%	93%	> 10 µM	9.46 µM	> 10 µM	
COC(=O)c1ccc2c(c1)nc(NCCN1CCCC1)c1ccncc12		17.8%	8.15%	0.9 µM	0.368 µM	1.25 µM	
O=C(O)c1ccc2c(c1)nc(Nc1cc(F)ccc1Br)c1ccncc12		64.5%	98.4%	> 10 µM	4.13 µM	> 10 µM	0.376 µM
O=C(O)c1ccc2c(c1)nc(Nc1cccc(CO)c1)c1ccncc12		64.7%	97.5%	> 10 µM	> 10 µM	> 10 µM	0.321 µM
N#Cc1ccc(Nc2nc3cc(C(=O)O)ccc3c3cnccc23)cc1		67.3%	95.6%	> 10 µM	> 10 µM	> 10 µM	0.31 µM
NC(=O)c1cc(F)cc(Nc2nc3cc(C(=O)O)ccc3c3cnccc23)c1		85%	99.2%	> 10 µM	> 10 µM	> 10 µM	0.093 µM
NC(=O)c1cc(Cl)cc(Nc2nc3cc(C(=O)O)ccc3c3cnccc23)c1		90.5%	102%	> 10 µM	> 10 µM	> 10 µM	0.09 µM
CCc1cccc(Nc2nc3cc(C(=O)O)ccc3c3cnccc23)c1		85%	101%	> 10 µM	3.64 µM	> 10 µM	0.122 µM
CC(C)c1cccc(Nc2nc3cc(C(=O)O)ccc3c3cnccc23)c1		72.4%	99.5%	> 10 µM	3.16 µM	> 10 µM	0.485 µM
NC(=O)c1cccc(Nc2nc3cc(C(=O)O)ccc3c3cnccc23)c1		74.8%	101%	> 10 µM	> 10 µM	> 10 µM	0.16 µM
COc1ccc(Nc2nc3cc(C(=O)O)ccc3c3cnccc23)cc1OC		59.3%	98.5%	> 10 µM	> 10 µM	> 10 µM	0.311 µM
O=C(O)c1ccc2c(c1)nc(Nc1ccc3c(c1)OCO3)c1ccncc12		76%	101%	> 10 µM	8.87 µM	> 10 µM	0.157 µM
NC(=O)c1ccc(Nc2nc3cc(C(=O)O)ccc3c3cnccc23)cc1		78.2%	-5.09%	> 10 µM	> 10 µM	> 10 µM	0.248 µM
